Legend:
[1] = Plasma concentrations measured by UPLC-MSMS in the case patient; format: in vivo, human
Procedure: The patient had pancreatic cancer and was admitted to Hirosaki University hospital to undergo a pancreatoduodenectomy. Written informed consent was obtained from this patient for the measurement of each biomarker and polymorphisms of pharmacokinetics-related genes. […] This regimen involved taking CAM 400 mg twice per day after breakfast and supper, RFP 450 mg once per day after breakfast, and ethambutol 750 mg once per day.

albumin = details: cited from earlier work
[2] = cited from earlier work
[3] = system: P-glycoprotein (P-gp; gene code ABCB1); details: cited from earlier work
[4] = system: organic anion transporting polypeptide 1B1 (OATP1B1; SLCO1B1); details: cited from earlier work

Compound | concentration at 26 h ([1]; male, human, in vivo, 30 mg/day, POD131, 26 h after last edoxaban tablet (C0h), edoxaban 30 mg/day, outpatient follow-up) [ng/mL] | concentration at 2 h ([1]; male, human, in vivo, 30 mg/day, POD233, 2 h after last edoxaban tablet (C2h), edoxaban 30 mg/day, outpatient follow-up) [ng/mL] | concentration at 24 h ([1]; male, human, in vivo, 60 mg once per day, POD9, 24 h after last edoxaban tablet (trough, C0h), edoxaban 60 mg once per day with RFP and CAM, onset of AKI) [ng/mL] | concentration at 8 h ([1]; male, human, in vivo, 60 mg once per day, POD10, 8 h after last edoxaban tablet (C8h), edoxaban 60 mg once per day with RFP and CAM, AKI) [ng/mL] | concentration at 24 h ([1]; male, human, in vivo, 60 mg once per day, POD11, 24 h after last edoxaban tablet (trough, C0h), AKI) [ng/mL] | concentration at 96 h ([1]; male, human, in vivo, 60 mg once per day, POD14, 96 h after last edoxaban tablet) [ng/mL] | albumin binding rate (albumin) [%] | absorbed drug excreted in its unchanged form through the kidneys [2] | bioavailability [2] | substrate of P-glycoprotein [3] | substrate of OATP1B1 [4] | Plasma concentration of valsartan ([1]; POD6) [ng/mL] | Plasma concentration of valsartan ([1]; POD9) [ng/mL] | Plasma concentration of valsartan ([1]; POD11) [ng/mL] | Plasma concentration of valsartan ([1]; POD131) [ng/mL] | concentration at 10 postoperative day ([1]; male, human, plasma, POD10, read-out: Plasma concentration of valsartan) [ng/mL] | concentration at 14 postoperative day ([1]; male, human, plasma, POD14, read-out: Plasma concentration of valsartan) [ng/mL] | unchanged valsartan excreted in the urine [2] [%]
CN1CCc2nc(C(=O)N[C@@H]3C[C@@H](C(=O)N(C)C)CC[C@@H]3NC(=O)C(=O)Nc3ccc(Cl)cn3)sc2C1 [edoxaban] | < 5 | 413 | 131 | 796 | 116 | < 5 | 55 | approximately 50% | approximately 62% | substrate | not an OATP1B1 substrate | – | – | – | – | – | – | –
CCCCC(=O)N(Cc1ccc(-c2ccccc2-c2nnn[nH]2)cc1)[C@H](C(=O)O)C(C)C [valsartan] | – | – | – | – | – | – | – | – | – | – | – | 2400 | 5700 | 10400 | 1000 | 9400 | 1400 | 13

Reference: publication PMC11520371 (Journal of Pharmaceutical Health Care and Sciences, 2024)
